Reference: ChEMBL document CHEMBL1134825, “Semi-synthesis of 2-deoxo- and 3-epi-paraherquamide A” (Bioorg Med Chem Lett, 2001)
Active and inactive are the calls of the source. The calls are words filed in the database; no cut-off is given here.

What was measured:
helminth = test: Compound was tested for antihelminthic activity; No activity; format: functional
[1] = Lethal dose in dog was determined; format: toxicity, organism-based, Canis lupus familiaris; settings: in vivo
[2] = Lethal dose in mice was determined; format: toxicity, organism-based; settings: mouse, in vivo

Row | Compound | Activity (helminth) | LD50 [1] | LD50 [2]
1 | CN1C(=O)[C@]23CC4C1(CN2CC[C@@]3(C)O)CC1(C(=O)Nc2c1ccc1c2OC=CC(C)(C)O1)C4(C)C (stereo partly drawn) | inactive |  | 
2 | CN1C(=O)[C@]23C[C@@H]4C(C)(C)[C@@]5(C[C@@]41CN2CC[C@@]3(C)O)C(=O)Nc1c5ccc2c1OC=CC(C)(C)O2 [Paraherquamide A] |  | 0.5 mg/kg | < 15 mg/kg
